Reference: patent US7179779B1, “Cationic bleach activator with enhanced hydrolytic stability” (North Carolina State University, priority 2006, dated 2007)
Entries after “also recorded” stand apart in the source; their conditions may differ. Where a name gives a salt, the structure may show the parent alone.

Columns and labels:
[1] = Available oxygen (AvO) of bleach activator storage solutions by modified iodometric titration; format: physicochemical; details: 10% w/w aqueous solution, pH 5 buffer, room temperature storage
Description: Active or available oxygen (AvO) is a useful parameter for assessing the oxidizing power of hydrogen peroxide or peracids from bleach activators. See American Standard Test Method D 2180–89 (West Conshohocken: ASTM International, 2003); and J. K. Grime, A. D. Clauss and K. A. Leslie, Tenside Surf. Det., 29 (1992) 23. A modified iodometric titration method was used to measure the AvO of the presently disclosed bleach activators. See J. J. Lee, S. Lim, P. Hauser and D. Hinks, Color. Technol., 121 (2005) 37.
(§1) Aqueous solutions (10% w/w) of cationic bleach activators 3a–3e were prepared using pH 5 buffer solution. A buffer solution of pH 5 was made using sodium acetate (0.1 M)/acetic acid. Each solution was stored in an amber glass bottle at room temperature.
AvO of a bleach activator was measured using a previously described procedure. See J. J. Lee, S. Lim, P. Hauser and D. Hinks, Color. Technol., 121 (2005) 37, the disclosure of which is incorporated herein by reference in its entirety.
On the selected day, the pH value of each storage solution was recorded and a 2 mL aliquot was withdrawn and added to a mixture of deionized water, stabilizer (1 g/L), Na2CO3 (14 g/L) and H2O2 (50% w/w, 0.5 g/L) to make a total volume of 200 mL. Crushed ice (180 g) was added to the sample solution while stirring. Acetic acid (50 mL) and potassium iodide solution (10 mL, 10% w/v) were then added separately. Using 0.025N sodium thiosulfate solution, the sample solution was titrated until it turned colorless. AvO (ppm) of a bleach activator was calculated using Equation 3.
[formula] wherein, Vtotal and VH2O2 are the volume (mL) of Na2S2O3 solution required for the titration of sample and blank respectively.

[2] = compared with conventional peroxide bleaching; cited from earlier work
[3] = Hydrolysis kinetics of bleach activator storage solutions by HPLC analysis; format: physicochemical; details: 10% solution, pH 5, room temperature
Description: Because the concentration of hydroxide ion, OH^−, in the cationic bleach activator solution is almost constant by using a buffer (pH 5), the decrease in the concentration of bleach activator can be expressed as equation 1:
[formula] wherein, [C] is the concentration of bleach activator at time t and k is the pseudo first order rate constant of hydrolysis. See M. B. Smith and J. March, March's Advanced Organic Chemistry: Reactions, Mechanisms, and Structure, 5th ed. (New York: Wiley, 2001) 291.
Equation 2 then can be derived from equation 1:
[formula] wherein, C0 and Ct are the concentration of bleach activator at initial time and time t, respectively.
as §1
The HPLC (Waters Breeze HPLC system, Waters Corporation, Milford, Mass., United States of America) with a C18 reverse-phase column (Waters Symmetry C18, 5 μm) was used to analyze the hydrolysis behaviors of the cationic bleach activators 3a–3e during storage. On the selected day, a 0.5 mL aliquot was withdrawn from each storage solution of 3a–3e and diluted with 24.5 mL of water. A 10-μL sample of the solution was injected into the HPLC. For the mobile phase, the gradient program using water with 0.005M heptanesulphonic acid as a solvent A and acetonitrile as a solvent B was used (Table 2). The flow rate was 1 mL/min.

[4] = Bleaching of cotton fabric with bleach activators, CIE whiteness index measurement; details: stored 10% w/w aqueous solutions, pH 5, bleaching at 70° C. for 50 min
Protocol: On the same day of the AvO measurement, bleaching was carried out with storage solutions of the bleach activators 3a–3e. Two grams of each solution was added to the bleaching solution, which comprised a wetting agent (1 g/L), stabilizer (1 g/L), NaOH (50% w/w, 3 g/L) and H2O2 (50% w/w, 3 g/L). Cotton fabric (10 g) was bleached in a laboratory IR dyeing machine (Ahiba Nuance, Datacolor International, Lawrenceville, N.J., United States of America) at a liquor ratio of 10:1. The temperature was raised to 70° C. at the rate of 4° C./min. After 50 min of bleaching, the bleaching bath was cooled to room temperature. The bleached fabric was rinsed thoroughly in tap water and air-dried.
The CIE Whiteness Index (WI) value was obtained for the bleached fabric using AATCC Test Method 110–1995. See AATCC Technical Manual, vol 75 (Research Triangle Park: American Association of Textile Chemists and colorists, 2000), the disclosure of which is incorporated herein by reference in its entirety.
The whiteness was measured on a UV calibrated Datacolor Spectraflash SF 600X (Datacolor Corporation, Lawrenceville, N.J., United States of America), under illuminant D65 using the 10° standard observer with specular and UV component included. Each sample was folded twice to give an opaque sample with four plies and whiteness was measured four times at different surfaces. The average value of CIE WI was recorded.

Compound	melting point	rate of decrease of AvO over storage time [1]	hydrolytic stability under typical storage conditions [3]	pseudo first order rate constant of hydrolysis (ranking) [3]	other results
CC[N+](CC)(CC)Cc1ccc(C(=O)N2CCCCCCCC2=O)cc1 (as salt: chloride) [Compound 3e, N-[4-(triethylammoniomethyl)benzoyl] octalactam chloride]	183 to 185 °C				
CC[N+](CC)(CC)Cc1ccc(C(=O)N2CCCCCCC2=O)cc1 (as salt: chloride) [Compound 3d, N-[4-(triethylammoniomethyl)benzoyl] heptalactam chloride]	194 to 196 °C				
CC[N+](CC)(CC)Cc1ccc(C(=O)N2CCCCCCCC2=O)cc1 [Compound 3e, N-[4-(triethylammoniomethyl)benzoyl] octalactam chloride]		decreased the slowest	more stable than TBCC; also recorded: the most stable compound	smaller than that of TBCC	rate constant of hydrolysis, times smaller than that of 3a [3]: about 3 times; rate constant of hydrolysis, times smaller than that of TBCC [3]: ~7 times; change of CIE-WI of cotton fabric bleached with stored activator solutions over storage time [4]: decreased slowest
CC[N+](CC)(CC)Cc1ccc(C(=O)N2CCCCCCC2=O)cc1 [Compound 3d, N-[4-(triethylammoniomethyl)benzoyl] heptalactam chloride]			more stable than TBCC	smaller than that of TBCC	

Second part, led by results:

melting point	rate of decrease of AvO over storage time [1]	hydrolytic stability under typical storage conditions [3]	Compound	pseudo first order rate constant of hydrolysis (ranking) [3]	other results
228 to 230 °C			CC[N+](CC)(CC)Cc1ccc(C(=O)N2CCCC2=O)cc1 (as salt: chloride) [Compound 3a, N-[4-(triethylammoniomethyl)benzoyl] butyrolactam chloride]		
212 to 214 °C	second to that of 3b		CC[N+](CC)(CC)Cc1ccc(C(=O)N2CCCCCC2=O)cc1.[Cl-] [Compound 3c, N-[4-(triethylammoniomethyl)benzoyl] caprolactam chloride]		bleaching performance [2]: satisfactory bleaching performance in a shorter time and at lower temperatures than conventional peroxide bleaching
		more stable than TBCC	CC[N+](CC)(CC)Cc1ccc(C(=O)N2CCCC2=O)cc1 [Compound 3a, N-[4-(triethylammoniomethyl)benzoyl] butyrolactam chloride]	smaller than that of TBCC	
187 to 189 °C	decreased the fastest		CC[N+](CC)(CC)Cc1ccc(C(=O)N2CCCCC2=O)cc1.[Cl-] [Compound 3b, N-[4-(triethylammoniomethyl)benzoyl] valerolactam chloride]	greatest	rate constant of hydrolysis, times greater than that of 3c or TBCC [3]: two times greater; change of CIE-WI of cotton fabric bleached with stored activator solutions over storage time [4]: decreased fastest
